In the first experiment the target is T1, human Cav3.2 channels (Homo sapiens, UniProt O95180).
T1 construct: expressed in transfected cells; host or cells: HEK293 cells (ATCC No. CRL-1573), plasmid pcDNA3.1(+)
T1 sequence (O95180 whole entry): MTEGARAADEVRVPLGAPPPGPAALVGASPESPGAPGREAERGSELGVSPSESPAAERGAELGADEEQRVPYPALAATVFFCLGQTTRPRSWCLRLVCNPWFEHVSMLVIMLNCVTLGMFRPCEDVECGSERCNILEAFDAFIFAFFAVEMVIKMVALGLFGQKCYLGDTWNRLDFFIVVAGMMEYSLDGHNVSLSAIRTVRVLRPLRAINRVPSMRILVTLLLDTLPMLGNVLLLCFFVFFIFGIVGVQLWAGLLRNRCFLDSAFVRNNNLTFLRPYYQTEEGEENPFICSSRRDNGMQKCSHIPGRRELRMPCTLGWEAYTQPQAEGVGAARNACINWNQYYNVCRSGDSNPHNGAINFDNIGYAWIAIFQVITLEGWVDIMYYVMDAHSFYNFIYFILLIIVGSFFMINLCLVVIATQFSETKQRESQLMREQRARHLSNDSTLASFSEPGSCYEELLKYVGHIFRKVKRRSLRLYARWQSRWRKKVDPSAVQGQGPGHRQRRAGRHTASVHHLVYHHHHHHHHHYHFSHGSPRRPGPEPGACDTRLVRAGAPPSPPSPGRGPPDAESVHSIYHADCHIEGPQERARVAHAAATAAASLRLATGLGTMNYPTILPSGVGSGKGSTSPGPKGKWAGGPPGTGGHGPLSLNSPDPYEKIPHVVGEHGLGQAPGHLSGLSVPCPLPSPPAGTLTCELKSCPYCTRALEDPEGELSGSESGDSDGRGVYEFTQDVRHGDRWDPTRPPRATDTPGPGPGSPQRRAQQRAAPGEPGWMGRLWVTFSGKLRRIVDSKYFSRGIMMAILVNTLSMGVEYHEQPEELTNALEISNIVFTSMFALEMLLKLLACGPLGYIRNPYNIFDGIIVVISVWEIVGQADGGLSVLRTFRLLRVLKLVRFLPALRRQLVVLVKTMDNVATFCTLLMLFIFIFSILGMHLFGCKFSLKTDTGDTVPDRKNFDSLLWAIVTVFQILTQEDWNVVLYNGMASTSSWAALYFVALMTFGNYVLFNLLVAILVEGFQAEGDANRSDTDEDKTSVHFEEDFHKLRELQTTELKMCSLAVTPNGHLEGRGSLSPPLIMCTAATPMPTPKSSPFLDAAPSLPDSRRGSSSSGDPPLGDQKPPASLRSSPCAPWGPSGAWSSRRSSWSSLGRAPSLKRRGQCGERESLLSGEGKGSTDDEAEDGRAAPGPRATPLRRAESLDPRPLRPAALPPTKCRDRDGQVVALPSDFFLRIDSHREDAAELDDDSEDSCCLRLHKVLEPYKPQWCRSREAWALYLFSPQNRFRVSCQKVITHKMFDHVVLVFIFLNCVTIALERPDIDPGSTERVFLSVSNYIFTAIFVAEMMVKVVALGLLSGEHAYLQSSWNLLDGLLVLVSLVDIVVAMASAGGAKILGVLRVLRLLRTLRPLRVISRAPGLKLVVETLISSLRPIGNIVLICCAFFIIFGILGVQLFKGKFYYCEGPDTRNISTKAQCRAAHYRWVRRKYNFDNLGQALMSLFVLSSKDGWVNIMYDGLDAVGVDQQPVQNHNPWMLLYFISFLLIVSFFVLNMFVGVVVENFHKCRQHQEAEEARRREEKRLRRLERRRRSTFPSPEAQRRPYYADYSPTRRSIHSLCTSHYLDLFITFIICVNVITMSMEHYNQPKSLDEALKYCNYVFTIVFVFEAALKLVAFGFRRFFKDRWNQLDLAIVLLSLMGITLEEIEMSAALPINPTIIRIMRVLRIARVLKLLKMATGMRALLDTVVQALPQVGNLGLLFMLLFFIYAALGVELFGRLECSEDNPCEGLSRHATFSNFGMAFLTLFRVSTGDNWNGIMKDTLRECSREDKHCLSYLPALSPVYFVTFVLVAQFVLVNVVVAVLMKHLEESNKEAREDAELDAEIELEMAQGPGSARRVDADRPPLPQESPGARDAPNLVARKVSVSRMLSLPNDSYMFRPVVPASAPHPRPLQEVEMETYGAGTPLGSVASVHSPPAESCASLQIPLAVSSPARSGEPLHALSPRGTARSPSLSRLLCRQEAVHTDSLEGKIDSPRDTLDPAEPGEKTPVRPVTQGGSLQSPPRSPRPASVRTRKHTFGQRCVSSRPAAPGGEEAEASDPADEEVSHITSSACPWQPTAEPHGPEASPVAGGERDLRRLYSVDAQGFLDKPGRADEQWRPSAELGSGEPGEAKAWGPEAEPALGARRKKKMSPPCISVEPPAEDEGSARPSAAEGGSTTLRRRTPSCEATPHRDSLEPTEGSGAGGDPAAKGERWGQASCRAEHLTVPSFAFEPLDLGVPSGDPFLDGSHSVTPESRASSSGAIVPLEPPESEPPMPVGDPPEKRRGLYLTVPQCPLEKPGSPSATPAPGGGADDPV
In words: Intracellular calcium concentration measurement (Fluo-4 AM) in stable cells expressing human Cav3.2 channels, buffer A / buffer B. The experiment is classed as cell-based. The note with it: Table 1; buffer A, equilibrium potential of potassium −92 mV; read-out: Inhibitory action of buffer A (inactivated state). An excerpt: Construction of Stable Cells Expressing Human Cav3.2 Channels
(1) A sequence produced by incorporating HindIII site and kozak sequence (GCCACC) into the 5′-terminal side of human Cav3.2 channel ORF (Open Reading Frame) gene and incorporating Kpnl site into the 3′-terminal side was incorporated into pcDNA3.1(+) (Thermo-Fisher Scientific, Inc., #V790-20), and the plasmid was transfected into HEK293 cells (ATCC No. CRL-1573) according to the protocol of FuGENE (registered trademark) HD Transfection Reagent (PROMEGA #E2311).
(2) Method for Measuring Intracellular Calcium Concentration
In the present measurement system, buffer A and buffer B having different potassium ion concentrations were used in order to evaluate the state-dependent Cav3.2 inhibitory action of a test compound.
Stable cell line expressing human Cav3.2 channels, which had been produced in (1), was seeded in a 96-well plate using DMEM medium including 10% FBS, and the cells were cultured for 48 hours under the conditions of 37° C. and 5% CO2. Subsequently, the medium was removed, and various wells that had been washed with a base buffer were treated with 80 μL of a fluorescent dye solution containing a mixed liquid of 22 μg of calcium fluorescence indicator Fluo-4 AM (Dojindo Laboratories Co., Ltd., #F311), 20 μL of DMSO, […] of 10% Pluronic F-127 (Thermo-Fisher Scientific, Inc., #P6866), and 4 mL of a base buffer. The cells were left to stand for 45 minutes at room temperature in the dark, and then the cells were washed with buffer A or buffer B. Solutions having various test compound concentrations and respectively containing buffer A or buffer B were added to the respective wells, the respective solutions containing DMSO at the same final concentration as that of the test compound as negative control, or containing the test compound dissolved in 100% DMSO at a final concentration of 0.1%. The cells were left to stand for another 15 minutes at room temperature in the dark, and the cells were analyzed using the following method using a microplate reader, EnVision (PerkinElmer, Inc.). First, the background fluorescence for each well was measured, subsequently an ionophore was added to the well, and the fluorescence of the baseline was measured. Subsequently, buffer A or buffer B containing added KCl at a concentration of 83.8 mM or 91.8 mM was added to each well, and an increase in fluorescence caused by a calcium influx generated by that stimulus was measured for 10 seconds. The percentage inhibition was calculated from the maximum fluorescence increment from the baseline, and the logarithmic value of the test compound concentration and the inhibitory activity were plotted to calculate the IC50 value. The analysis was carried out by measuring the fluorescence at 510 nm emitted when the cells were irradiated with exciting light at 485 nm.
Base buffer: 140 mM NaCl, 5 mM KCl, 1 mM MgCl2, 0.5 mM CaCl2, 10 mM Glucose, and 10 mM HEPES, pH 7.3
Buffer A: Equilibrium potential of potassium: −92 mV
A general note: A change in cytosolic calcium serves as a functional read-out for many receptors and channels.
For `C[C@@H](NC(=O)C1CC1c1nc2ccccc2[nH]1)c1cnn(CCC(F)(F)F)c1` (stereo partly shown) [Example 9], the IC50 was over 10 µM.

Turning to `C[C@@H](NC(=O)C1CC1c1nc2ccccc2[nH]1)c1ncc(Br)s1` (single isomer, unassigned) [Example 11B], the IC50 was over 10 µM.

`Cc1cc([C@@H](C)NC(=O)C2CC2c2nc3ccccc3[nH]2)sc1OCC(F)(F)F` (single isomer, unassigned) [Example 1B]: the IC50 was 1 to 10 µM.

Consider `Cc1cc([C@@H](C)NC(=O)C2CC2c2nc3ccccc3[nH]2)sc1OCC(F)(F)F` (single isomer, unassigned) [Example 1A], for which the IC50 was 0.1 to 1 µM.

Consider `C[C@@H](NC(=O)C1CC1c1nc2ccccc2[nH]1)c1cnc(OCC(F)(F)F)s1` (single isomer, unassigned) [Example 8B], for which the IC50 is over 10 µM.

Staying with this experiment, now noted: Table 1; buffer B, equilibrium potential of potassium −110 mV; read-out: Inhibitory action of buffer B (resting state or closed state).
For the compound `Cc1cc([C@@H](C)NC(=O)C2CC2c2nc3ccccc3[nH]2)sc1OCC(F)(F)F` (single isomer, unassigned) [Example 1A], the IC50 is over 10 µM.

Staying with this experiment, now noted: Tables 2 to 6; buffer A, equilibrium potential of potassium −92 mV; read-out: Inhibitory action of buffer A (inactivated state).
For `C[C@@H](NC(=O)[C@H]1C[C@@H]1c1nc2ccccc2[nH]1)c1ccc(C(=O)N(C)C)s1` [Example 84, 5-((R)-1-((1S,2S)-2-(1H-benzo[d]imidazol-2-yl)cyclopropane-1-carboxamido)ethyl)-N,N-dimethylthiophene-2-carboxamide], the IC50 fell in the range of 1 to 10 µM.

Consider `C[C@@H](NC(=O)C1CC1c1cn(C)c2ccccc12)c1ccc(OCC(F)(F)F)s1` (single isomer, unassigned) [Example 29A], for which the IC50 is over 10 µM.

Regarding `C[C@@H](NC(=O)C1CC1c1nc2cnccc2[nH]1)c1ccc(OCC(F)(F)F)s1` (mixture of isomers) [Example 28, Trans-2-(1H-imidazo[4,5-c]pyridin-2-yl)-N—((R)-1-(5-(2,2,2-trifluoroethoxy)thiophen-2-yl)ethyl)cyclopropane-1-carboxamide], the IC50 was over 10 µM.

Regarding `C[C@@H](NC(=O)C1CC1c1ccc2cnn(C)c2c1)c1cc2cc(F)ccc2o1` (single isomer, unassigned) [Example 103A], the IC50 was 0.1 to 1 µM.

`CC(NC(=O)[C@H]1C[C@@H]1c1nc2ccccc2[nH]1)c1cc2cnccc2o1` (stereo partly drawn) [Example 99, (1S,2S)-2-(1H-benzo[d]imidazol-2-yl)-N-(1-(furo[3,2-c]pyridin-2-yl)ethyl)cyclopropane-1-carboxamide]: the IC50 lay in the range of 1 to 10 µM.

As to `C[C@@H](NC(=O)C1CC1c1c[nH]c2ccccc12)c1cc2cc(F)ccc2o1` (single isomer, unassigned) [Example 98B], the IC50 fell in the range of 0.1 to 1 µM.

Turning to `C[C@@H](NC(=O)C1CC1c1nc2ccccc2[nH]1)c1ccc(C(N)=O)s1` (single isomer, unassigned) [Example 30], the IC50 was over 10 µM.

As for `CCn1c(C2CC2C(=O)N[C@H](C)c2cnc(OCC(F)(F)F)s2)nc2ccccc21` (single isomer, unassigned) [Example 57A], the IC50 fell in the range of 0.1 to 1 µM.

Turning to `C[C@@H](NC(=O)C1CC1c1nc2ccccc2[nH]1)c1ccc(C(=O)N2CCN(C)CC2)s1` (stereo in doubt) [Example 68, Trans-2-(1H-benzo[d]imidazol-2-yl)-N—((R)-1-(5-(4-methylpiperazine-1-carbonyl)thiophen-2-yl)ethyl)cyclopropane-1-carboxamide], the IC50 fell in the range of 1 to 10 µM.

As to `C[C@@H](NC(=O)[C@H]1C[C@@H]1c1nc2ccccc2[nH]1)c1ccc(C(=O)N2CCCCCC2)s1` [Example 87, (1S,2S)—N—((R)-1-(5-(azepane-1-carbonyl)thiophen-2-yl)ethyl)-2-(1H-benzo[d]imidazol-2-yl)cyclopropane-1-carboxamide], the IC50 was 1 to 10 µM.

`C[C@@H](NC(=O)C1CC1c1ncc2ccccn12)c1cc2cc(F)ccc2o1` (single isomer, unassigned) [Example 117B]: the IC50 was in the range of 1 to 10 µM.

Regarding `C[C@@H](NC(=O)C1CC1c1cn(C)c2ccccc12)c1ccc(OCC(F)(F)F)s1` (single isomer, unassigned) [Example 29B], the IC50 was over 10 µM.

Take `C[C@@H](NC(=O)C1CC1c1nc2ccccc2o1)c1ccc(OCC(F)(F)F)s1` (single isomer, unassigned) [Example 40B]: the IC50 was over 10 µM.

As for `C[C@@H](NC(=O)[C@@H]1CCN(CC(=O)Nc2cnccn2)C1)c1ccc(OCC(F)(F)F)s1` [Example 37, (R)-1-(2-oxo-2-(pyrazin-2-ylamino)ethyl)-N—((R)-1-(5-(2,2,2-trifluoroethoxy)thiophen-2-yl)ethyl)pyrrolidine-3-carboxamide], the IC50 lay in the range of 1 to 10 µM.

`O=C(NC1(c2cc3cc(F)ccc3o2)CC1)[C@H]1C[C@@H]1c1nc2ccccc2[nH]1` [Example 128, (1S,2S)-2-(1H-benzo[d]imidazol-2-yl)-N-(1-(5-fluorobenzofuran-2-yl)cyclopropyl)cyclopropane-1-carboxamide]: the IC50 lay in the range of 0.1 to 1 µM.

On to `C[C@@H](NC(=O)[C@H]1C[C@@H]1c1nc2ccccc2[nH]1)c1ccc(C(=O)N2CCCC(F)C2)s1` (stereo partly drawn) [Example 95, (1S,2S)-2-(1H-benzo[d]imidazol-2-yl)-N-((1R)-1-(5-(3-fluoropiperidine-1-carbonyl)thiophen-2-yl)ethyl)cyclopropane-1-carboxamide], for which the IC50 fell in the range of 1 to 10 µM.

Turning to `C[C@@H](NC(=O)C1CC1c1ccc2cnn(C)c2c1)c1cc2cc(F)ccc2o1` (single isomer, unassigned) [Example 103B], the IC50 was over 10 µM.

As to `C[C@@H](NC(=O)C1CC1c1nc2ccccc2[nH]1)c1ccc(C(=O)N2CCCC2(C)C)s1` (stereo in doubt) [Example 67, Trans-2-(1H-benzo[d]imidazol-2-yl)-N—((R)-1-(5-(2,2-dimethylpyrrolidine-1-carbonyl)thiophen-2-yl)ethyl)cyclopropane-1-carboxamide], the IC50 fell in the range of 1 to 10 µM.

Consider `CC(NC(=O)[C@H]1C[C@@H]1c1nc2ccccc2[nH]1)c1nc2ccc(F)cc2[nH]1` (single isomer, unassigned) [Example 127A], for which the IC50 is 0.1 to 1 µM.

`C[C@@H](NC(=O)C1CC1c1nc2ccccc2[nH]1)c1ccc(C(=O)N2CCNCC2)s1` (stereo in doubt) [Example 75, Trans-2-(1H-benzo[d]imidazol-2-yl)-N—((R)-1-(5-(piperazine-1-carbonyl)thiophen-2-yl)ethyl)cyclopropane-1-carboxamide]: the IC50 was in the range of 1 to 10 µM.

For the compound `CC(C)[C@H](NC(=O)[C@H]1C[C@@H]1c1nc2ccccc2[nH]1)c1ccc(C(F)(F)F)s1` [Example 115, (1S,2S)-2-(1H-benzo[d]imidazol-2-yl)-N—((S)-2-methyl-1-(5-(trifluoromethyl)thiophen-2-yl)propyl)cyclopropane-1-carboxamide], the IC50 lay within 0.1 to 1 µM.

With `C[C@@H](NC(=O)C1CC1c1nc2cc(Cl)ccc2o1)c1cc2cc(F)ccc2o1` (single isomer, unassigned) [Example 108B], the IC50 fell in the range of 0.1 to 1 µM.

`C[C@@H](NC(=O)C1CC1c1nc2cc(Cl)ccc2[nH]1)c1cnc(OCC(F)(F)F)s1` (single isomer, unassigned) [Example 64B]: the IC50 is 1 to 10 µM.

In the case of `C[C@@H](NC(=O)[C@H]1C[C@@H]1c1nc2ccccc2[nH]1)c1ccc2c(c1)OCO2` [Example 55, (1S,2S)—N—((R)-1-(benzo[d][1,3]dioxol-5-yl)ethyl)-2-(1H-benzo[d]imidazol-2-yl)cyclopropane-1-carboxamide], the IC50 lay in the range of 0.1 to 1 µM.

As for `Cc1ccc2nc(C3CC3C(=O)N[C@H](C)c3ccc(OCC(F)(F)F)s3)[nH]c2n1` (single isomer, unassigned) [Example 106B], the IC50 lay within 1 to 10 µM.

Consider `C[C@@H](NC(=O)C1CC1c1ccccn1)c1ccc(OCC(F)(F)F)s1` (single isomer, unassigned) [Example 23A], for which the IC50 was 1 to 10 µM.

With `C[C@@H](NC(=O)C1CC1c1nc2c(Cl)cccc2[nH]1)c1ccc(OCC(F)(F)F)s1` (single isomer, unassigned) [Example 122B], the IC50 lay in the range of 0.1 to 1 µM.

`COc1ccc2oc([C@@H](C)NC(=O)[C@H]3C[C@@H]3c3nc4ccccc4[nH]3)cc2c1` [Example 79, (1S,2S)-2-(1H-benzo[d]imidazol-2-yl)-N—((R)-1-(5-methoxybenzofuran-2-yl)ethyl)cyclopropane-1-carboxamide]: the IC50 was in the range of 0.1 to 1 µM.
